Measured values reported in patent US20210275545A1, “METHOD OF TREATING CANCER PREFERABLY CHARACTERIZED BY EXPRESSION OF A FUSION PROTEIN COMPRISING A MEMBER OF THE E-TWENTY-SIX FAMILY BY ADMINISTERING AN AGENT THAT INHIBITS THE SYNTHESIS AND/OR ACTIVITY OF CORTISOL” (Yeda Research and Development Co. Ltd., priority 2018, published 2021).

Experiments:
GR and FLI1 = GR and FLI1 (Homo sapiens, UniProt P04150); conditions: HEK-293T cells, treated for 60 minutes
Procedure: (A) The scheme presents the full length Gaussia luciferase protein, along with either the amino-terminal segment (Gluc1), which was fused to an ETS family transcription factor, or the carboxyl terminal segment (Gluc2), which was fused to GR. Amino acid numbers are indicated. cDNAs encoding most members of the ETS family (16 members altogether) were cloned downstream to Gluc1. […] (B) HEK-293T cells (6×10^3) were seeded in 96-well plates. On the next day, cells were transfected with combinations of the Gluc1 plasmid, encoding a fused ETS family member, and the Gluc2 plasmid encoding a fused full-length GR. […] Cells were then lysed and luminescence was determined in biological triplicates. […] (D and E) HEK-293T cells were seeded in 100-mm dishes. Once they reached sub-maximal density (70%), cells were starved overnight for serum factors. […] Cell extracts were then processed for co-immunoprecipitation assays, in which the endogenous FLI1 or ERG protein was immunoprecipitated using a specific antibody, and immunoblotting was performed using an antibody against GR. EB, empty beads; C, solvent control. Images shown are representative of three biological replicates.
(§1) Proximity ligation assay (PLA), extraction of cells, co-immunoprecipitation and cell migration/invasion assays: These assays were performed exactly as recently reported.

GR and EWS-FLI1 [1] = target: T1, GR and EWS-FLI1 (Homo sapiens, UniProt P04150); conditions: A673 cells
Procedure: Images were processed using the Zeiss ZEN2011 software. […] Bars, 20 μm.
as §1

[2] = tested on: CHLA9, A673 and RD-ES cells; test: MTT cell viability assay, three ES lines; type: cell-based; conditions: increasing concentrations, 24 hours
Procedure: (§2) FIGS. 12A-F: Inhibition of GR activity decreases growth and survival of Ewing's sarcoma cells. […] (B) Increasing concentrations of D06, a non-steroidal antagonist of GR [54], were incubated with A673 cells as in A and the MTT assay was performed in triplicates. *, p<0.05. […] Note that the abundance of the endogenous form of FLI1 is much weaker than that of EWS-FLI1. […] MTT assays were performed after 48 hours of treatment. The assay was repeated twice in quadruplets. **, p<0.01, ***, p<0.001. (E) A673 cells were seeded in 100-mm dishes. […] Shown are results of an apoptosis assay performed using an annexinV/7-AAD kit (BioLegend, Inc.). Quantification of the fractions of early and late apoptotic cells is shown in bar plots. The experiment was repeated twice. (F) The indicated ES cells were sparsely seeded in 6-well plates. […] Ten days later, cells were fixed and stained with crystal violet to visualize emerging colonies. Photos are shown along with bar plots showing the quantification of colonies in 5 non-overlapping microscope fields. The experiment was repeated twice. *, p≤0.05; **, p≤0.001.
According to recent reports, the EWS-FLI1 fusion promotes cell cycle progression and inhibits apoptosis. […] Next, siRNA specific to the FLI1 region of the fusion (FIG. 12C) were analyzed in A673 cells. […]

A673 cells [3] = test: MTT cell viability assay, A673 cells; type: cell-based; conditions: FLI1 silenced A673 cells; RU486 10 μM, 48 hours
A673 cells [4] = test: Apoptosis assay (annexinV/7-AAD); type: cell-based; conditions: RU486 10 or 20 μM, 48 hours
Procedure: as §2, with “[…],” for “D06,”, “p≤0.001. Apoptosis assays: Assays were performed using the FITC Annexin V Apoptosis Detection Kit with 7-AAD (from BioLegend) and analyzed using a BD FACSAria Fusion instrument controlled by BD FACS Diva software v8.0.1 (BD Biosciences).” for “p≤0.001.”

RD-ES tumors = test: Immunoblotting of RD-ES tumor extracts; type: in vivo, SCID mice
Procedure: FIGS. 13A-B: A GR antagonist and a cortisol-lowering drug induce markers of cell death in animal models of Ewing's sarcoma. (A) RD-ES tumors presented in FIG. 6A were extracted and analyzed using immunoblotting and the indicated antibodies. Note that tumors from three different mice per group were analyzed. (B) Whole extracts prepared from the tumors presented in FIG. 6D were analyzed using immunoblotting and the indicated antibodies. Note that tumors from three different mice per group were analyzed.
ES animal model studies: All animal experiments were approved by the Weizmann Institute's Animal Care and Use Committee. RD-ES cells and A673 cells (2.5×10^6) were inoculated subcutaneously in the right legs of female SCID mice (6 weeks old). Tumor growth was monitored once every 3 days using a caliper. […] Mice were euthanized when tumor size reached 800-900 mm^3. For metastasis assays, luciferase-labeled TC-71 cells (10^6) were injected orthotopically into the tibia of female SCID mice. Once the primary tumor reached the allowed size limit, we excised the lungs and examined metastases using luciferase bioluminescence imaging.

GR and EWS-FLI1 [5] = target: T1, GR and EWS-FLI1; conditions: DEX 1 μM, RU486 1 μM, 60 minutes
Procedure: (A) CHLA9 cells were seeded in 100-mm dishes. Once they reached sub-maximal density, cells were starved overnight for serum factors. […] Cells were then extracted and the lysates were processed for co-immunoprecipitation assays using an antibody against GR followed by immunobloting that used an antibody against EWS. The image shown is representative of 3 biological replicates. Signals were quantified and normalized (see numbers below each lane). EB, empty beads. […] (C-D) CHLA9 cells were seeded on the upper faces of either Transwell migration chambers or Matrigel-coated invasion chambers, and further incubated for 20 hours in full medium. Control siRNAs or siRNAs specific to either GR or EWS-FLI1 were added to cells 24 hours prior to seeding, and both cell migration and invasion were measured 20 hours later. […] Cells that reached the lower faces of the chambers were fixed and stained. Shown are representative images of stained cells. The bar plots show quantification, using ImageJ, of the area covered by cells. *, p≤0.05, **, p≤0.005. Bars, 500 μm. […] The bar plots show quantification, using ImageJ, of the area covered by cells. *, p≤0.05, **, p≤0.005. […]
(A) RD-ES cells were seeded in 100-mm dishes. […] Cell migration/invasion was determined 20 hours later.

T1 sequence (P04150 whole entry): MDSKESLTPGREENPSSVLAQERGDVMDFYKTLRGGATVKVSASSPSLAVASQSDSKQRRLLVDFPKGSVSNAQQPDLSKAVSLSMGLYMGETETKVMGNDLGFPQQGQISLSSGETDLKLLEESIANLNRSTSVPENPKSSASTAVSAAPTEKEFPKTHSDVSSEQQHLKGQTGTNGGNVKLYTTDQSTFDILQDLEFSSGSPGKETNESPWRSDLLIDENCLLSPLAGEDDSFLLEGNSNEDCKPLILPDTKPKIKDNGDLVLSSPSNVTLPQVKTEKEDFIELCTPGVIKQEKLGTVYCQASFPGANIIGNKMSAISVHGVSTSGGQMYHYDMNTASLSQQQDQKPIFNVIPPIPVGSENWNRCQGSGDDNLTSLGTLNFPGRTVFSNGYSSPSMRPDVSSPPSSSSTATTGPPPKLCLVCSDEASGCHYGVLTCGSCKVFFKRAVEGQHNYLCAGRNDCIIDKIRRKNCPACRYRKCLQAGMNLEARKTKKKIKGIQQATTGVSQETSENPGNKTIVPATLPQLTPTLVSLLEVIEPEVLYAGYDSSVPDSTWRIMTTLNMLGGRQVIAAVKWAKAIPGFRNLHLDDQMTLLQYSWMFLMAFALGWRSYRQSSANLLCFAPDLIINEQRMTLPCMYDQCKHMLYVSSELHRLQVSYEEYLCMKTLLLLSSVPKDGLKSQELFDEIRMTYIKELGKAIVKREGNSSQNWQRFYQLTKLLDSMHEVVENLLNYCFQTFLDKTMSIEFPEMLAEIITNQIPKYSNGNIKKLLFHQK
Chain of GR and FLI1 (P04150 whole entry, the tested form may be a part): as the sequence (P04150 whole entry) above

## CC#C[C@]1(O)CC[C@H]2[C@@H]3CCC4=CC(=O)CCC4=C3[C@@H](c3ccc(N(C)C)cc3)C[C@@]21C [RU486, Mifepristone]
GR and FLI1
  co-immunoprecipitation of GR and FLI1: strongly reduced
GR and EWS-FLI1 [1]
  GR/EWS-FLI1 protein-protein interactions (PLA): blocked
[2]
  survival of ES cell lines (MTT): dose-dependent reduction
A673 cells [3]
  fraction of metabolically active cells (MTT) after EWS-FLI1 knockdown: further reduced
A673 cells [4]; DEX 1 μM
  early apoptosis (fraction of cells): increased
A673 cells [4]
  late apoptosis (fraction of cells): increased
RD-ES tumors
  AKT survival pathway in tumors: inhibited
  LC3B-I abundance in tumors: increased abundance
  activation of caspase 3 in tumors: no clear activation
  larger isoform of BIM in tumors: up-regulation
RD-ES tumors; three mice per group
  p21 abundance in tumors: increased abundance
  p27 abundance in tumors: increased abundance
GR and EWS-FLI1 [5]; CHLA9 cells
  GR/EWS-FLI1 co-immunoprecipitation, CHLA9 cells: completely
GR and EWS-FLI1 [5]; RD-ES cells
  GR/EWS-FLI1 co-immunoprecipitation, RD-ES cells: partially
